Experimental data: US20260297081A1, “COMPOUNDS AND METHODS OF TREATING CANCERS” (Cullgen Inc., priority 2023, published 2026)

Biological target: CDK4 (Homo sapiens, UniProt P11802+Q16531)
Test: CDK4 percentage degradation in Calu-1 cells (Table 6)
Type: cell-based
Set-up: Cells that express cyclin D1-3 and CDK4/6 proteins were treated with heterobifunctional compounds; endogenous in cells; host or cells: Calu-1
Conditions: 16 hours; for inhibition at 0.04 µM: 40 nM; for inhibition at 0.2 µM: 200 nM
Method in brief: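 Percentage degradation of Cyclin D1 and CDK4 derived from densitometry of ECL Western blots on lysates of Calu-1 cells. Treatment was 16 h with compound at either 40 nM or 200 nM.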

CDK4, sequence (P11802 2-303 limits assumed): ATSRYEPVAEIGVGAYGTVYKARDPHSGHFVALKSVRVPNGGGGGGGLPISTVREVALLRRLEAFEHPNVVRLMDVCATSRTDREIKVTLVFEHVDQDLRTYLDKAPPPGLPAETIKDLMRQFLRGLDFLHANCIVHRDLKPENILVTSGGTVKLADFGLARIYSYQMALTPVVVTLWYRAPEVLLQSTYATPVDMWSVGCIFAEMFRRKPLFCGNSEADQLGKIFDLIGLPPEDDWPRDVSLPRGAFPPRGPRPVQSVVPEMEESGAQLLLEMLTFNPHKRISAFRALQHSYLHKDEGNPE
CDK4, sequence (P24385 whole entry partner): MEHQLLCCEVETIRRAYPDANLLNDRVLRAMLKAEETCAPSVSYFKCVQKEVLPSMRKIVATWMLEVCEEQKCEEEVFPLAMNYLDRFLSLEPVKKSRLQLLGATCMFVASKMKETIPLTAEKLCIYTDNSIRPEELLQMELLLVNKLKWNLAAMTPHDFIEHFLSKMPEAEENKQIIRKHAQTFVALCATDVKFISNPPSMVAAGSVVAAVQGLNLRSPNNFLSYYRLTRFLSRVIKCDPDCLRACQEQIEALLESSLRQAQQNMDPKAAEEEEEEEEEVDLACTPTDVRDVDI
CDK4, sequence (Q16531 2-1140 limits assumed): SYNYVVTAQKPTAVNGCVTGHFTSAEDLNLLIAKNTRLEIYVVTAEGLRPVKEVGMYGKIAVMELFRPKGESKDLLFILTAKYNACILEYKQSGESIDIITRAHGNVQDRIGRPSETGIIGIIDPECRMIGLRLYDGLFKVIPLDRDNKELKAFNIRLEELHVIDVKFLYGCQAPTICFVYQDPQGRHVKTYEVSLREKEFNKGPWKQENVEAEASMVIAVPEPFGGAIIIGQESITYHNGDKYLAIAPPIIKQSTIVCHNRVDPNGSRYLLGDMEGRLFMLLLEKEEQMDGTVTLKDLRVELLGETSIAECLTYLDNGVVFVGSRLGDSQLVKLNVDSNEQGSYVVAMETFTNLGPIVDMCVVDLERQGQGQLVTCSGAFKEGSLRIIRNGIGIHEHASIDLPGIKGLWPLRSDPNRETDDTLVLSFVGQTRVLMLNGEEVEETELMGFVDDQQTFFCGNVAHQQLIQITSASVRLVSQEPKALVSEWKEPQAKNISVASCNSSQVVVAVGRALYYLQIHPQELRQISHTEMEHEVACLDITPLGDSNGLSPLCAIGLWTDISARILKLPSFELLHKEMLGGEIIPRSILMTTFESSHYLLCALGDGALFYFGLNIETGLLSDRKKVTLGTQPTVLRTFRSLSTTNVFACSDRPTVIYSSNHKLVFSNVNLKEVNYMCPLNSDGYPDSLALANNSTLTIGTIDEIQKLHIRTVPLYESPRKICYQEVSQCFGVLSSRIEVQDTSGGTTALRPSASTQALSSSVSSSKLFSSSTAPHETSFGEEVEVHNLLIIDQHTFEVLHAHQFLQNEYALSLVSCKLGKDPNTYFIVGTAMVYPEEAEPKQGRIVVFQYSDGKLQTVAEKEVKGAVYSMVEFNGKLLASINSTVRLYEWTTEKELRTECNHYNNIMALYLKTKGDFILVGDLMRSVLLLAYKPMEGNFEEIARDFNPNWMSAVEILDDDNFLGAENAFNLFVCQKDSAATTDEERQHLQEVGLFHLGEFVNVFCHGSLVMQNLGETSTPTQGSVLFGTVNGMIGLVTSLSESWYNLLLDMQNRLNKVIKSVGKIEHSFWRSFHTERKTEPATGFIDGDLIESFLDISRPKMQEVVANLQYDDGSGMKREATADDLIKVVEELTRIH

SMILES | inhibition at 0.04 µM [%] | inhibition at 0.2 µM [%]
CNc1ccc(C(=O)Nc2ccc(N(C)C)nn2)c(NC2CN(C(=O)CN3CCN(c4ccc(Nc5ncc6c(C)c(C(C)=O)c(=O)n(C7CCCC7)c6n5)nc4)CC3)C2)n1 [CPD-187, 2-((1-(2-(4-(6-((6-acetyl-8-cyclopentyl-5-methyl-7-oxo-7,8-dihydropyrido[2,3-d]pyrimidin-2-yl)amino)pyridin-3-yl)piperazin-1-yl)acetyl)azetidin-3-yl)amino)-N-(6-(dimethylamino)pyridazin-3-yl)-6-(methylamino)nicotinamide] | < 30 | 50 to 80
CC(=O)c1c(C)c2cnc(Nc3ccc(N4CCN(CC(=O)NC(C)CCCCNc5nc(C6CC6)ccc5C(=O)Nc5ccc(C)c(C6CC6)n5)CC4)cn3)nc2n(C2CCCC2)c1=O (stereo not shown) [CPD-60, 2-((5-(2-(4-(6-((6-Acetyl-8-cyclopentyl-5-methyl-7-oxo-7,8-dihydropyrido[2,3-d]pyrimidin-2-yl)amino)pyridin-3-yl)piperazin-1-yl)acetamido)hexyl)amino)-6-cyclopropyl-N-(6-cyclopropyl-5-methylpyridin-2-yl)nicotinamide] | 50 to 80 | 50 to 80
CNc1ccc(C(=O)N(C)c2ccc(N(C)C)nn2)c(NCCCCCNC(=O)CN2CCN(c3ccc(Nc4ncc5c(C)c(C(C)=O)c(=O)n(C6CCCC6)c5n4)nc3)CC2)n1 [CPD-71, 2-((5-(2-(4-(6-((6-acetyl-8-cyclopentyl-5-methyl-7-oxo-7,8-dihydropyrido[2,3-d]pyrimidin-2-yl)amino)pyridin-3-yl)piperazin-1-yl)acetamido)pentyl)amino)-N-(6-(dimethylamino)pyridazin-3-yl)-N-methyl-6-(methylamino)nicotinamide] | < 30 | < 30
CNc1ccc(C(=O)Nc2ccc3c(n2)CCC3)c(NCCCCCNC(=O)CN2CCN(c3ccc(Nc4ncc5c(C)c(C(C)=O)c(=O)n(C6CCCC6)c5n4)nc3)CC2)n1 [CPD-40, 2-((5-(2-(4-(6-((6-Acetyl-8-cyclopentyl-5-methyl-7-oxo-7,8-dihydropyrido[2,3-d]pyrimidin-2-yl)amino)pyridin-3-yl)piperazin-1-yl)acetamido)pentyl)amino)-N-(6,7-dihydro-5H-cyclopenta[b]pyridin-2-yl)-6-(methylamino)nicotinamide] | 50 to 80 | 50 to 80
CCc1ccc(C(=O)Nc2cccc(C3CC3)n2)c(NC2CC3(CC(NC(=O)CN4CCN(c5ccc(Nc6ncc7c(C)c(C(C)=O)c(=O)n(C8CCCC8)c7n6)nc5)CC4)C3)C2)n1 (stereo not shown) [CPD-124, 2-((6-(2-(4-(6-((6-Acetyl-8-cyclopentyl-5-methyl-7-oxo-7,8-dihydropyrido[2,3-d]pyrimidin-2-yl)amino)pyridin-3-yl)piperazin-1-yl)acetamido)spiro[3.3]heptan-2-yl)amino)-N-(6-cyclopropylpyridin-2-yl)-6-ethylnicotinamide] | 30 to 50 | 30 to 50
CNc1ccc(C(=O)Nc2ccc(C)c(C)n2)c(NC2CC3(CC(NC(=O)CN4CCN(c5ccc(Nc6ncc7c(C)c(C(C)=O)c(=O)n(C8CCCC8)c7n6)nc5)CC4)C3)C2)n1 (stereo not shown) [CPD-182, 2-((6-(2-(4-(6-((6-acetyl-8-cyclopentyl-5-methyl-7-oxo-7,8-dihydropyrido[2,3-d]pyrimidin-2-yl)amino)pyridin-3-yl)piperazin-1-yl)acetamido)spiro[3.3]heptan-2-yl)amino)-N-(5,6-dimethylpyridin-2-yl)-6-(methylamino)nicotinamide] | 30 to 50 | 30 to 50

Further lines, results first:

inhibition at 0.04 µM [%] | inhibition at 0.2 µM [%] | SMILES
50 to 80 | 50 to 80 | CNc1ccc(C(=O)Nc2ccc(N(C)C)nn2)c(NCCCC2CN(C(=O)CN3CCN(c4ccc(Nc5ncc6c(C)c(C(C)=O)c(=O)n(C7CCCC7)c6n5)nc4)CC3)C2)n1 [CPD-102, 2-((3-(1-(2-(4-(6-((6-Acetyl-8-cyclopentyl-5-methyl-7-oxo-7,8-dihydropyrido[2,3-d]pyrimidin-2-yl)amino)pyridin-3-yl)piperazin-1-yl)acetyl)azetidin-3-yl)propyl)amino)-N-(6-(dimethylamino)pyridazin-3-yl)-6-(methylamino)nicotinamide]
< 30 | – | CNc1ccc(C(=O)Nc2ccc(Cl)cn2)c(NCCCCCNC(=O)CN2CCN(c3ccc(Nc4ncc5c(C)c(C(C)=O)c(=O)n(C6CCCC6)c5n4)nc3)CC2)n1 [CPD-20, 2-((5-(2-(4-(6-((6-acetyl-8-cyclopentyl-5-methyl-7-oxo-7,8-dihydropyrido[2,3-d]pyrimidin-2-yl)amino)pyridin-3-yl)piperazin-1-yl)acetamido)pentyl)amino)-N-(5-chloropyridin-2-yl)-6-(methylamino)nicotinamide]
< 30 | < 30 | CC(=O)c1c(C)c2cnc(Nc3ccc(N4CCN(CC(=O)NC5CC6(C5)CC(Nc5nc(C#N)ccc5C(=O)Nc5cccc(C7CC7)n5)C6)CC4)cn3)nc2n(C2CCCC2)c1=O (stereo not shown) [CPD-141, 2-((6-(2-(4-(6-((6-Acetyl-8-cyclopentyl-5-methyl-7-oxo-7,8-dihydropyrido[2,3-d]pyrimidin-2-yl)amino)pyridin-3-yl)piperazin-1-yl)acetamido)spiro[3.3]heptan-2-yl)amino)-6-cyano-N-(6-cyclopropylpyridin-2-yl)nicotinamide]
30 to 50 | 50 to 80 | CNc1ccc(C(=O)Nc2ccc(N(C)C)nc2)c(NCCCCCNC(=O)CN2CCN(c3ccc(Nc4ncc5c(C)c(C(C)=O)c(=O)n(C6CCCC6)c5n4)nc3)CC2)n1 [CPD-58, 2-((5-(2-(4-(6-((6-Acetyl-8-cyclopentyl-5-methyl-7-oxo-7,8-dihydropyrido[2,3-d]pyrimidin-2-yl)amino)pyridin-3-yl)piperazin-1-yl)acetamido)pentyl)amino)-N-(6-(dimethylamino)pyridin-3-yl)-6-(methylamino)nicotinamide]
50 to 80 | > 80 | CNc1ccc(C(=O)Nc2ccc(N(C)C)nn2)c(NC2CC3(C2)CN(C(=O)CN2CCN(c4ccc(Nc5ncc6c(C)c(C(C)=O)c(=O)n(C7CCCC7)c6n5)nc4)CC2)C3)n1 [CPD-97]
30 to 50 | 50 to 80 | CC(=O)c1c(C)c2cnc(Nc3ccc(N4CCN(CC(=O)NCCC5CC(Nc6cc(F)ccc6C(=O)Nc6ccc(N(C)C)nn6)C5)CC4)cn3)nc2n(C2CCCC2)c1=O (stereo not shown) [CPD-258, 2-((3-(2-(2-(4-(6-((6-Acetyl-8-cyclopentyl-5-methyl-7-oxo-7,8-dihydropyrido[2,3-d]pyrimidin-2-yl)amino)pyridin-3-yl)piperazin-1-yl)acetamido)ethyl)cyclobutyl)amino)-N-(6-(dimethylamino)pyridazin-3-yl)-4-fluorobenzamide]
< 30 | 30 to 50 | CC(=O)c1c(C)c2cnc(Nc3ccc(N4CCN(CC(=O)NC5CC6(C5)CC(Nc5nc(C(F)(F)F)ccc5C(=O)Nc5cccc(C7CC7)n5)C6)CC4)cn3)nc2n(C2CCCC2)c1=O (stereo not shown) [CPD-121, 2-((6-(2-(4-(6-((6-Acetyl-8-cyclopentyl-5-methyl-7-oxo-7,8-dihydropyrido[2,3-d]pyrimidin-2-yl)amino)pyridin-3-yl)piperazin-1-yl)acetamido)spiro[3.3]heptan-2-yl)amino)-N-(6-cyclopropylpyridin-2-yl)-6-(trifluoromethyl)nicotinamide]
